This is an account of results in patent publication US9533975B2, “Dual-action, unnatural proline-rich peptides as antibiotic agents and methods thereof” (Purdue Research Foundation, priority 2014, dated 2017).

Data set [1] deals with human red blood cells (hRBCs). Conditions: at 5 'LIM.
The nature of a further data set: in vitro. The conditions noted are these: human.

With `CC[C@H](C)[C@H](NC(=O)CN)C(=O)NCC(=O)N[C@@H](C)C(=O)N[C@H](C(=O)N[C@@H](CC(C)C)C(=O)N[C@@H](CCCCN)C(=O)N[C@H](C(=O)N[C@@H](CC(C)C)C(=O)N[C@H](C(=O)N[C@H](C(=O)NCC(=O)N[C@@H](CC(C)C)C(=O)N1CCC[C@H]1C(=O)N[C@@H](C)C(=O)N[C@@H](CC(C)C)C(=O)N[C@H](C(=O)N[C@@H](CO)C(=O)N[C@@H](Cc1c[nH]c2ccccc12)C(=O)N[C@H](C(=O)N[C@@H](CCCCN)C(=O)N[C@@H](CCCNC(=N)N)C(=O)N[C@@H](CCCCN)C(=O)N[C@@H](CCCNC(=N)N)C(=O)N[C@@H](CCC(N)=O)C(=O)N[C@@H](CCC(N)=O)C(N)=O)[C@@H](C)CC)[C@@H](C)CC)[C@@H](C)O)[C@@H](C)O)C(C)C)C(C)C` [Melittin], the “hemolytic activity” value in data set [1] is reported as “highly hemolytic”. For the same molecule, the hemolysis at 5 µM in “in vitro” was above 80%.
